Values quoted from earlier work in US20090208616A1, “INTERVENTION TECHNIQUES FOR REDUCING CARCASS CONTAMINATION” (priority 2000, published 2009).
Where two headings read alike, the source gives them in different places.

System: Giardia Cysts

Compound: NCl [Chloramine]
- CT value for 0.5-log inactivation of Giardia cysts by chloramine (pH range 6 to 9, 5 ° C.): 365 mg/L-min
- CT value for 1-log inactivation of Giardia cysts by chloramine (pH range 6 to 9, 5 ° C.): 735 mg/L-min
- CT value for 1.5-log inactivation of Giardia cysts by chloramine (pH range 6 to 9, 5 ° C.): 1100 mg/L-min
- CT value for 2-log inactivation of Giardia cysts by chloramine (pH range 6 to 9, 5 ° C.): 1470 mg/L-min
- CT value for 2.5-log inactivation of Giardia cysts by chloramine (pH range 6 to 9, 5 ° C.): 1830 mg/L-min
- CT value for 3-log inactivation of Giardia cysts by chloramine (pH range 6 to 9, 5 ° C.): 2200 mg/L-min
- CT value for 0.5-log inactivation of Giardia cysts by chloramine (pH range 6 to 9, 10 ° C.): 310 mg/L-min
- CT value for 1-log inactivation of Giardia cysts by chloramine (pH range 6 to 9, 10 ° C.): 615 mg/L-min
- CT value for 1.5-log inactivation of Giardia cysts by chloramine (pH range 6 to 9, 10 ° C.): 930 mg/L-min
- CT value for 2-log inactivation of Giardia cysts by chloramine (pH range 6 to 9, 10 ° C.): 1230 mg/L-min
- CT value for 2.5-log inactivation of Giardia cysts by chloramine (pH range 6 to 9, 10 ° C.): 1540 mg/L-min
- CT value for 3-log inactivation of Giardia cysts by chloramine (pH range 6 to 9, 10 ° C.): 1850 mg/L-min
- CT value for 0.5-log inactivation of Giardia cysts by chloramine (pH range 6 to 9, 15 ° C.): 250 mg/L-min
- CT value for 1-log inactivation of Giardia cysts by chloramine (pH range 6 to 9, 15 ° C.): 500 mg/L-min
- CT value for 1.5-log inactivation of Giardia cysts by chloramine (pH range 6 to 9, 15 ° C.): 750 mg/L-min
- CT value for 2-log inactivation of Giardia cysts by chloramine (pH range 6 to 9, 15 ° C.): 1000 mg/L-min
- CT value for 2.5-log inactivation of Giardia cysts by chloramine (pH range 6 to 9, 15 ° C.): 1250 mg/L-min
- CT value for 3-log inactivation of Giardia cysts by chloramine (pH range 6 to 9, 15 ° C.): 1500 mg/L-min
- CT value for 0.5-log inactivation of Giardia cysts by chloramine (pH range 6 to 9, 20 ° C.): 185 mg/L-min
- CT value for 1-log inactivation of Giardia cysts by chloramine (pH range 6 to 9, 20 ° C.): 370 mg/L-min
- CT value for 1.5-log inactivation of Giardia cysts by chloramine (pH range 6 to 9, 20 ° C.): 550 mg/L-min
- CT value for 2-log inactivation of Giardia cysts by chloramine (pH range 6 to 9, 20 ° C.): 735 mg/L-min
- CT value for 2.5-log inactivation of Giardia cysts by chloramine (pH range 6 to 9, 20 ° C.): 915 mg/L-min
- CT value for 3-log inactivation of Giardia cysts by chloramine (pH range 6 to 9, 20 ° C.): 1100 mg/L-min
- CT value for 0.5-log inactivation of Giardia cysts by chloramine (pH range 6 to 9, 25 ° C.): 125 mg/L-min
- CT value for 1-log inactivation of Giardia cysts by chloramine (pH range 6 to 9, 25 ° C.): 250 mg/L-min
- CT value for 1.5-log inactivation of Giardia cysts by chloramine (pH range 6 to 9, 25 ° C.): 375 mg/L-min
- CT value for 2-log inactivation of Giardia cysts by chloramine (pH range 6 to 9, 25 ° C.): 500 mg/L-min
- CT value for 2.5-log inactivation of Giardia cysts by chloramine (pH range 6 to 9, 25 ° C.): 625 mg/L-min
- CT value for 3-log inactivation of Giardia cysts by chloramine (pH range 6 to 9, 25 ° C.): 750 mg/L-min
- CT value for 0.5-log inactivation of Giardia cysts by chloramine (pH range 6 to 9, ≦1 ° C.): 635 mg/L-min
- CT value for 1-log inactivation of Giardia cysts by chloramine (pH range 6 to 9, ≦1 ° C.): 1270 mg/L-min
- CT value for 1.5-log inactivation of Giardia cysts by chloramine (pH range 6 to 9, ≦1 ° C.): 1900 mg/L-min
- CT value for 2-log inactivation of Giardia cysts by chloramine (pH range 6 to 9, ≦1 ° C.): 2535 mg/L-min
- CT value for 2.5-log inactivation of Giardia cysts by chloramine (pH range 6 to 9, ≦1 ° C.): 3170 mg/L-min
- CT value for 3-log inactivation of Giardia cysts by chloramine (pH range 6 to 9, ≦1 ° C.): 3800 mg/L-min
